Test results: the supplement of paper PMC10307832

Experiments:
Assay in all cases: relative viability (nuclei count vs DMSO), 5 days (fraction); higher = more cells survive
NCI-H1299 = tested on: NCI-H1299
How it was run: (§1)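 Lung cancer cell lines were pin-tool dosed in 1536-well plates on the day after seeding, with either a lone drug or a fixed anchor-drug dose plus five library-drug doses (not always all listed) in √10 steps. Nuclei were counted on 4× images after 5 days. Relative viability is the ratio of treated-well to vehicle-well nuclei counts, with each value a median of duplicate plates.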

A549 = tested on: A549
How it was run: as §1

Calu-6 = tested on: Calu-6
How it was run: as §1

NCI-H1703 = tested on: NCI-H1703
How it was run: as §1

EBC-1 = tested on: EBC-1
How it was run: as §1

IA-LM = tested on: IA-LM
How it was run: as §1

NCI-H1563 = tested on: NCI-H1563
How it was run: as §1

Row | SMILES | relative viability (NCI-H1299; first compound 0.08 µM) | relative viability (NCI-H1299; first compound 0.253 µM) | relative viability (NCI-H1299; first compound 0.8 µM) | relative viability (NCI-H1299; first compound 2.53 µM) | relative viability (A549; first compound 0.08 µM) | relative viability (A549; first compound 0.253 µM) | relative viability (A549; first compound 0.8 µM) | relative viability (A549; first compound 2.53 µM) | relative viability (Calu-6; first compound 0.08 µM) | relative viability (Calu-6; first compound 0.253 µM) | relative viability (Calu-6; first compound 0.8 µM) | relative viability (Calu-6; first compound 2.53 µM) | relative viability (NCI-H1703; first compound 0.08 µM) | relative viability (NCI-H1703; first compound 0.253 µM) | relative viability (NCI-H1703; first compound 0.8 µM) | relative viability (NCI-H1703; first compound 2.53 µM) | relative viability (EBC-1; first compound 0.08 µM) | relative viability (EBC-1; first compound 0.253 µM) | relative viability (EBC-1; first compound 0.8 µM) | relative viability (EBC-1; first compound 2.53 µM) | relative viability (IA-LM; first compound 0.08 µM) | relative viability (IA-LM; first compound 0.253 µM) | relative viability (IA-LM; first compound 0.8 µM) | relative viability (IA-LM; first compound 2.53 µM) | relative viability (NCI-H1563; first compound 0.08 µM) | relative viability (NCI-H1563; first compound 0.253 µM) | relative viability (NCI-H1563; first compound 0.8 µM) | relative viability (NCI-H1563; first compound 2.53 µM)
1 | Cc1cnc(-c2cnc(NCCNc3ccc(C#N)cn3)nc2-c2ccc(Cl)cc2Cl)[nH]1 + CC1(C)CCC(c2ccc(Cl)cc2)=C(CN2CCN(c3ccc(C(=O)NS(=O)(=O)c4ccc(N[C@H](CCN5CCOCC5)CSc5ccccc5)c(S(=O)(=O)C(F)(F)F)c4)cc3)CC2)C1 [Navitoclax] (partner 0.5 µM) | 1.04 | 1.02 | 1.09 | 1.04 | 1.23 | 1.18 | 1.21 | 1.18 | 0.826 | 0.773 | 0.789 | 0.717 | 1.15 | 1.03 | 1.2 | 1.08 | 0.399 | 0.351 | 0.542 | 0.23 | 0.78 | 0.71 | 0.809 | 0.695 | – | – | – | –
2 | Cc1cnc(-c2cnc(NCCNc3ccc(C#N)cn3)nc2-c2ccc(Cl)cc2Cl)[nH]1 + CC(C)C[C@H](NC(=O)[C@H](Cc1ccccc1)NC(=O)c1cnccn1)B(O)O [Bortezomib] (partner 0.002 µM) | 1.05 | 1 | 1.02 | 0.969 | – | – | – | – | 0.933 | 0.996 | 1.06 | 1.03 | 0.337 | 0.352 | 0.5 | 0.699 | 0.607 | – | 0.546 | 0.509 | 0.849 | 0.855 | 1.06 | 0.891 | 0.831 | 0.944 | 0.827 | 0.914
3 | Cc1cnc(-c2cnc(NCCNc3ccc(C#N)cn3)nc2-c2ccc(Cl)cc2Cl)[nH]1 + CS(=O)(=O)CCNCc1ccc(-c2ccc3ncnc(Nc4ccc(OCc5cccc(F)c5)c(Cl)c4)c3c2)o1 [Lapatinib] (partner 2 µM) | 0.954 | 0.983 | 0.948 | 0.862 | 0.96 | 0.942 | 1.16 | 1.14 | 1.14 | 0.991 | 1 | 1.03 | 1.12 | 1.02 | 1.2 | 1.28 | 0.253 | 0.201 | 0.215 | 0.248 | 0.985 | 0.864 | 0.679 | 0.685 | 1.06 | 0.997 | 0.963 | 1.01
4 | Cc1cnc(-c2cnc(NCCNc3ccc(C#N)cn3)nc2-c2ccc(Cl)cc2Cl)[nH]1 + CS(=O)(=O)N1CCN(Cc2cc3nc(-c4cccc5[nH]ncc45)nc(N4CCOCC4)c3s2)CC1 [Pictilisib] (partner 1 µM) | 0.822 | 0.754 | 0.861 | 0.426 | 0.597 | 0.482 | 0.764 | 0.775 | 0.923 | 0.934 | 1.05 | 0.911 | 0.256 | 0.252 | 0.23 | 0.314 | 0.421 | 0.368 | 0.549 | 0.567 | 0.362 | 0.408 | – | 0.483 | 0.649 | 0.72 | 0.709 | 0.725
